The text below walks through data of US8530493B2, “Indolopyridines as Eg5 kinesin modulators” (4SC AG, priority 2006, dated 2013).

SMILES strings stand for the structures.

The test system of the assay is RKO p21 uninduced (proliferating) colon adenocarcinoma cells. The assay is described as follows: Alamar Blue cell viability assay, RKO p21 uninduced (proliferating). Conditions: Homo sapiens, Table B3, anti-proliferative/cytotoxic activity, 72 hours, read-out: −log EC50 RKO p21 uninduced (proliferating) (converted). In kind it is cell-based. In outline:
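RKO p21 or p27 subclones grown without Ponasterone A, i.e. proliferating, exposed 24 h after seeding to semi-log compound dilutions in DMEM/10% FCS (1% DMSO controls) for 72 h at 37° C. Alamar Blue fluorescence (544/590 nm) read relative to untreated cells; EC50 from dose-response curves, given as −log EC50 (mol/l).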
On the technique in general: Alamar Blue is a resazurin reagent that responds to reducing activity.

In the case of `C=CCN(C)CCCN1C(=O)N2[C@H](c3cccc(O)c3)c3[nH]c4ccc(OCC)cc4c3C[C@@]2(C)C1=O` (racemic) [Example 196, (3aSR,10RS)-2-[3-(Allyl-methyl-amino)-propyl]-6-ethoxy-10-(3-hydroyx-phenyl)-3a-methyl-3a,4,9,10-tetrahydro-2,9,10a-triaza-cyclopenta[b]fluorene-1,3-dione], the EC50 – broadly, the concentration that produces a half-maximal response – is 39.8 to 251 nM.

Consider `COc1cc2c3c([nH]c2cc1F)[C@@H](c1cccc(O)c1)N1C(=O)N(CCNCCO)C(=O)[C@]1(C)C3` [Example 245, (3aS,10R)-7-Fluoro-2-[2-(2-hydroxy-ethylamino)-ethyl]-10-(3-hydroxy-phenyl)-6-methoxy-3a-methyl-3a,4,9,10-tetrahydro-2,9,10a-triaza-cyclopenta[b]fluorene-1,3-dione], for which the EC50 was 39.8 to 251 nM.

With `CCOc1ccc2[nH]c3c(c2c1)C[C@@]1(C)C(=O)N(CCN2CCCCC2)C(=O)N1[C@@H]3c1cccc(O)c1` (racemic) [Example 164, (3aSR,10RS)-6-Ethoxy-10-(3-hydroxy-phenyl)-3a-methyl-2-(2-piperidin-1-yl-ethyl)-3a,4,9,10-tetrahydro-2,9,10a-triaza-cyclopenta[b]fluorene-1,3-dione], the EC50 was 39.8 to 251 nM.

In the case of `CC(C)NCCCN1C(=O)N2[C@H](c3cccc(O)c3)c3[nH]c4cc(F)c(Cl)cc4c3C[C@@]2(C)C1=O` (racemic) [Example 458, (3aSR,10RS)-6-Chloro-7-fluoro-10-(3-hydroxy-phenyl)-2-(3-isopropylamino-propyl)-3a-methyl-3a,4,9,10-tetrahydro-2,9,10a-triaza-cyclopenta[b]fluorene-1,3-dione], the EC50 is 39.8 to 251 nM.

For `CCN(CCO)CCN1C(=O)N2[C@H](c3cccc(O)c3)c3[nH]c4cc(F)c(OC)cc4c3C[C@@]2(C)C1=O` (racemic) [Example 451, (3aSR,10RS)-2-{2-[Ethyl-(2-hydroxy-ethyl)-amino]-ethyl}-7-fluoro-10-(3-hydroxy-phenyl)-6-methoxy-3a-methyl-3a,4,9,10-tetrahydro-2,9,10a-triaza-cyclopenta[b]fluorene-1,3-dione], the EC50 was 39.8 to 251 nM.

For the compound `CNCCCN1C(=O)N2[C@H](c3cccc(O)c3)c3[nH]c4cc(F)c(OC)cc4c3C[C@@]2(C)C1=O` (racemic) [Example 303, (3aSR,10RS)-7-Fluoro-10-(3-hydroxy-phenyl)-6-methoxy-3a-methyl-2-(3-methylamino-propyl)-3a,4,9,10-tetrahydro-2,9,10a-triaza-cyclopenta[b]fluorene-1,3-dione], the EC50 is 39.8 to 251 nM.

Take `C=CCNCCCN1C(=O)N2[C@H](c3cccc(O)c3)c3[nH]c4ccc(OC(F)F)cc4c3C[C@@]2(C)C1=O` (racemic) [Example 206, (3aSR,10RS)-2-(3-Allylamino-propyl)-6-(1,1-difluoro-methoxy)-10-(3-hydroxy-phenyl)-3a-methyl-3a,4,9,10-tetrahydro-2,9,10a-triaza-cyclopenta[b]fluorene-1,3-dione]: the EC50 is 39.8 to 251 nM.

On to `C[C@@]12Cc3c([nH]c4ccc(Br)cc34)[C@@H](c3cccc(O)c3)N1C(=O)N(CCN1CCCC1)C2=O` (racemic) [Example 389, (3aSR,10RS)-6-Bromo-10-(3-hydroxy-phenyl)-3a-methyl-2-(2-pyrrolidin-1-yl-ethyl)-3a,4,9,10-tetrahydro-2,9,10a-triaza-cyclopenta[b]fluorene-1,3-dione], for which the EC50 is ≤ 39.8 nM.

Take `COc1cc2c3c([nH]c2cc1F)[C@@H](c1cccc(O)c1)N1C(=O)N(CCN2CCCCC2)C(=O)[C@]1(C)C3` (racemic) [Example 263, (3aSR,10RS)-7-Fluoro-10-(3-hydroxy-phenyl)-6-methoxy-3a-methyl-2-(2-piperidin-1-yl-ethyl)-3a,4,9,10-tetrahydro-2,9,10a-triaza-cyclopenta[b]fluorene-1,3-dione]: the EC50 is 39.8 to 251 nM.

For the compound `C[C@@]12Cc3c([nH]c4cc(F)c(Cl)cc34)[C@@H](c3cccc(O)c3)N1C(=O)N(CCN1CC=CC1)C2=O` (racemic) [Example 355, (3aSR,10RS)-6-Chloro-2-[2-(2,5-dihydro-pyrrol-1-yl)-ethyl]-7-fluoro-10-(3-hydroxy-phenyl)-3a-methyl-3a,4,9,10-tetrahydro-2,9,10a-triaza-cyclopenta[b]fluorene-1,3-dione], the EC50 was 39.8 to 251 nM.

With `C=CCNCCCN1C(=O)N2[C@H](c3cccc(O)c3)c3[nH]c4ccc(OC)cc4c3C[C@@]2(C)C1=O` [Example 533, (3aS,10R)-2-(3-Allylamino-propyl)-10-(3-hydroxy-phenyl)-6-methoxy-3a-methyl-3a,4,9,10-tetrahydro-2,9,10a-triaza-cyclopenta[b]fluorene-1,3-dione], the EC50 is ≤ 39.8 nM.

Take `CCN(CCCN1C(=O)N2[C@H](c3cccc(O)c3)c3[nH]c4ccc(Cl)cc4c3C[C@@]2(C)C1=O)CCOC` (racemic) [Example 397, (3aSR,10RS)-6-Chloro-2-{3-[ethyl-(2-methoxy-ethyl)-amino]-propyl}-10-(3-hydroxy-phenyl)-3a-methyl-3a,4,9,10-tetrahydro-2,9,10a-triaza-cyclopenta[b]fluorene-1,3-dione]: the EC50 was ≤ 39.8 nM.

In the case of `CCOc1ccc2[nH]c3c(c2c1)C[C@@]1(C)C(=O)N(CCCN2CC=CC2)C(=O)N1[C@@H]3c1cccc(O)c1` (racemic) [Example 222, (3aSR,10RS)-2-[3-(2,5-Dihydro-pyrrol-1-yl)-propyl]-6-ethoxy-10-(3-hydroxy-phenyl)-3a-methyl-3a,4,9,10-tetrahydro-2,9,10a-triaza-cyclopenta[b]fluorene-1,3-dione], the EC50 was 39.8 to 251 nM.

For `CC(C)(C)NCCCN1C(=O)N2[C@H](c3cccc(O)c3)c3[nH]c4cc(F)c(Cl)cc4c3C[C@@]2(C)C1=O` (racemic) [Example 464, (3aSR,10RS)-2-(3-tert-Butylamino-propyl)-6-chloro-7-fluoro-10-(3-hydroxy-phenyl)-3a-methyl-3a,4,9,10-tetrahydro-2,9,10a-triaza-cyclopenta[b]fluorene-1,3-dione], the EC50 is 39.8 to 251 nM.

Take `CCOc1ccc2[nH]c3c(c2c1)C[C@@]1(C)C(=O)N(CCCN2CCOCC2)C(=O)N1[C@@H]3c1cccc(O)c1` (racemic) [Example 207, (3aSR,10RS)-6-Ethoxy-10-(3-hydroxy-phenyl)-3a-methyl-2-(3-morpholin-4-yl-propyl)-3a,4,9,10-tetrahydro-2,9,10a-triaza-cyclopenta[b]fluorene-1,3-dione]: the EC50 is 39.8 to 251 nM.

Regarding `CN(CCO)CCCN1C(=O)N2[C@H](c3cccc(O)c3)c3[nH]c4ccc(Br)cc4c3C[C@@]2(C)C1=O` (racemic) [Example 370, (3aSR,10RS)-6-Bromo-2-{3-[(2-hydroxy-ethyl)-methyl-amino]-propyl}-10-(3-hydroxy-phenyl)-3a-methyl-3a,4,9,10-tetrahydro-2,9,10a-triaza-cyclopenta[b]fluorene-1,3-dione], the 50% effective concentration (EC50) is ≤ 39.8 nM.

Consider `C[C@@]12Cc3c([nH]c4cc(F)c(Cl)cc34)[C@@H](c3cccc(O)c3)N1C(=O)N(CCCNCC1CC1)C2=O` (racemic) [Example 460, (3aSR,10RS)-6-Chloro-2-[3-(cyclopropylmethyl-amino)-propyl]-7-fluoro-10-(3-hydroxy-phenyl)-3a-methyl-3a,4,9,10-tetrahydro-2,9,10a-triaza-cyclopenta[b]fluorene-1,3-dione], for which the EC50 was 39.8 to 251 nM.

For the compound `C[C@@]12Cc3c([nH]c4ccc(Br)cc34)[C@@H](c3cccc(O)c3)N1C(=O)N(CCN1CC=CCC1)C2=O` (racemic) [Example 395, (3aSR,10RS)-6-Bromo-2-[2-(3,6-dihydro-2H-pyridin-1-yl)-ethyl]-10-(3-hydroxy-phenyl)-3a-methyl-3a,4,9,10-tetrahydro-2,9,10a-triaza-cyclopenta[b]fluorene-1,3-dione], the EC50 is 39.8 to 251 nM.

On to `CCN(C)CCCN1C(=O)N2[C@H](c3cccc(O)c3)c3[nH]c4ccc(OC(F)F)cc4c3C[C@@]2(C)C1=O` (racemic) [Example 247, (3aSR,10RS)-6-(1,1-Difluoro-methoxy)-2-[3-(ethyl-methyl-amino)-propyl]-10-(3-hydroxy-phenyl)-3a-methyl-3a,4,9,10-tetrahydro-2,9,10a-triaza-cyclopenta[b]fluorene-,3-dione], for which the EC50 was ≤ 39.8 nM.

As for `COc1cc2c3c([nH]c2cc1F)[C@@H](c1cccc(O)c1)N1C(=O)N(CCN2CCN(C)CC2)C(=O)[C@]1(C)C3` (racemic) [Example 266, (3aSR,10RS)-7-Fluoro-10-(3-hydroxy-phenyl)-6-methoxy-3a-methyl-2-[2-(4-methyl-piperazin-1-yl)-ethyl]-3a,4,9,10-tetrahydro-2,9,10a-triaza-cyclopenta[b]fluorene-1,3-dione], the EC50 was 39.8 to 251 nM.

For `CCNCCN1C(=O)N2[C@H](c3cccc(O)c3)c3[nH]c4ccc(Br)cc4c3C[C@@]2(C)C1=O` (racemic) [Example 393, (3aSR,10RS)-6-Bromo-2-(2-ethylamino-ethyl)-10-(3-hydroxy-phenyl)-3a-methyl-3a,4,9,10-tetrahydro-2,9,10a-triaza-cyclopenta[b]fluorene-1,3-dione], the EC50 was ≤ 39.8 nM.

For `CCOc1ccc2[nH]c3c(c2c1)C[C@@]1(C)C(=O)N(CCNC2CCC2)C(=O)N1[C@@H]3c1cccc(O)c1` (racemic) [Example 155, (3aSR,10RS)-2-(2-Cyclobutylamino-ethyl)-6-ethoxy-10-(3-hydroxy-phenyl)-3a-methyl-3a,4,9,10-tetrahydro-2,9,10a-triaza-cyclopenta[b]fluorene-1,3-dione], the concentration giving a half-maximal response (EC50) is ≤ 39.8 nM.

On to `COCCNCCCN1C(=O)N2[C@H](c3cccc(O)c3)c3[nH]c4ccc(OC(F)F)cc4c3C[C@@]2(C)C1=O` (racemic) [Example 205, (3aSR,10RS)-6-(1,1-Difluoro-methoxy)-10-(3-hydroxy-phenyl)-2-[3-(2-methoxy-ethylamino)-propyl]-3a-methyl-3a,4,9,10-tetrahydro-2,9,10a-triaza-cyclopenta[b]fluorene-1,3-dione], for which the EC50 was 39.8 to 251 nM.
